Experimental data reported in ChEMBL document CHEMBL1141559, “Alpha-hydroxy amides as a novel class of bradykinin B1 selective antagonists” (Bioorg Med Chem Lett, 2008).

Legend:
[1] = molecular target: T1, B1 bradykinin receptor (Homo sapiens, UniProt P46663); test: Binding affinity to human bradykinin B1 receptor expressed in CHO cells; format: cell-based
T1 sequence (P46663 whole entry): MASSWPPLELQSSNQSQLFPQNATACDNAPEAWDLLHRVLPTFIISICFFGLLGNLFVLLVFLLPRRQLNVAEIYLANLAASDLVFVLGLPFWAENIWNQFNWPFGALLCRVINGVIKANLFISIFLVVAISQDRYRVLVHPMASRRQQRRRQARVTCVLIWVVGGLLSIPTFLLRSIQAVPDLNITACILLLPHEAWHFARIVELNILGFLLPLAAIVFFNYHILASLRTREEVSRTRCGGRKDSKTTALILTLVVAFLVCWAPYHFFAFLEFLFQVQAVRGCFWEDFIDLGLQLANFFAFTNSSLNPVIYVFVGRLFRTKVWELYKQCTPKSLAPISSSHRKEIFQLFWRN

[2] = Oral bioavailability in Sprague-Dawley rat at 10 mg/kg; format: ADME, organism-based; details: in vivo
[3] = Half life in Sprague-Dawley rat at 10 mg/kg, po or 2 mg/kg, iv; format: ADME, organism-based; details: in vivo
[4] = Clearance in Sprague-Dawley rat at 10 mg/kg, po or 2 mg/kg, iv; format: ADME, organism-based; details: in vivo
[5] = Volume of distribution in Sprague-Dawley rat at 10 mg/kg, po or 2 mg/kg, iv; format: ADME, organism-based; details: in vivo, read-out: Vdss
[6] = Half life in Beagle dog at 0.25 mg/kg, iv; format: ADME, organism-based, Canis lupus familiaris; parameters: dose 0.25 mg/kg, route intravenous; details: in vivo
[7] = Clearance in Beagle dog at 0.25 mg/kg, iv; format: ADME, organism-based, Canis lupus familiaris; parameters: dose 0.25 mg/kg, route intravenous; details: in vivo
[8] = Volume of distribution in Beagle dog at 0.25 mg/kg, iv; format: ADME, organism-based, Canis lupus familiaris; parameters: dose 0.25 mg/kg, route intravenous; details: in vivo
[9] = molecular target: T1, B1 bradykinin receptor; test: […] human bradykinin B1 receptor by FLIPR assay
[10] = system: LLC-PK1; test: Ratio of permeability from basolateral to apical over apical to basolateral side of pig MDR1 transfected LLC-PK1 cells; format: ADME, cell-based, Sus scrofa
[11] = Apparent permeability across pig LLC-PK1 cells; format: ADME, cell-based, Sus scrofa
[12] = Oral bioavailability in Beagle dog at 3 mg/kg by cassette dosing; format: ADME, organism-based, Canis lupus familiaris; details: in vivo
[13] = Half life in Beagle dog at 3 mg/kg, po or 1 mg/kg, iv by cassette dosing; format: ADME, organism-based, Canis lupus familiaris; details: in vivo
[14] = Clearance in Beagle dog at 3 mg/kg, po or 1 mg/kg, iv by cassette dosing; format: ADME, organism-based, Canis lupus familiaris; details: in vivo
[15] = Oral bioavailability in rhesus monkey at 1 mg/kg; format: ADME, organism-based, Macaca mulatta; details: in vivo
[16] = Half life in rhesus monkey at 1 mg/kg, po or 1 mg/kg, iv; format: ADME, organism-based, Macaca mulatta; details: in vivo
[17] = Clearance in rhesus monkey at 1 mg/kg, po or 1 mg/kg, iv; format: ADME, organism-based, Macaca mulatta; details: in vivo
[18] = molecular target: Cytochrome P450 3A4 (Homo sapiens, UniProt P08684); test: Inhibition of CYP3A4; format: ADME
Chain of Cytochrome P450 3A4 (P08684 whole entry): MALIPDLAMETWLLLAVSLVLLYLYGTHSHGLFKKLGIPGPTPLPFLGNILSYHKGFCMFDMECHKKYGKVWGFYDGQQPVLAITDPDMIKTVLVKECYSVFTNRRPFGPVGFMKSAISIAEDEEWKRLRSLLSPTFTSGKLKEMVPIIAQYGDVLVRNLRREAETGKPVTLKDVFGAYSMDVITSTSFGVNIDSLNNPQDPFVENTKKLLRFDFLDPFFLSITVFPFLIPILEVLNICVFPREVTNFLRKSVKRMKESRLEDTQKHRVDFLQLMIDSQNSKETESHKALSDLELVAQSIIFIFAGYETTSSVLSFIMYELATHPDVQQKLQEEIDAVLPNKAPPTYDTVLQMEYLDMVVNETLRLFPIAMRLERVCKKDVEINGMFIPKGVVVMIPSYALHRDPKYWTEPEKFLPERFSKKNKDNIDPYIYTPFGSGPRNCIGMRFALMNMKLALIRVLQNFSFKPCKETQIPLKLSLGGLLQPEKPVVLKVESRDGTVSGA

[19] = molecular target: Cytochrome P450 2C9 (Homo sapiens, UniProt P11712); test: Inhibition of CYP2C9; format: ADME
Chain of Cytochrome P450 2C9 (P11712 whole entry): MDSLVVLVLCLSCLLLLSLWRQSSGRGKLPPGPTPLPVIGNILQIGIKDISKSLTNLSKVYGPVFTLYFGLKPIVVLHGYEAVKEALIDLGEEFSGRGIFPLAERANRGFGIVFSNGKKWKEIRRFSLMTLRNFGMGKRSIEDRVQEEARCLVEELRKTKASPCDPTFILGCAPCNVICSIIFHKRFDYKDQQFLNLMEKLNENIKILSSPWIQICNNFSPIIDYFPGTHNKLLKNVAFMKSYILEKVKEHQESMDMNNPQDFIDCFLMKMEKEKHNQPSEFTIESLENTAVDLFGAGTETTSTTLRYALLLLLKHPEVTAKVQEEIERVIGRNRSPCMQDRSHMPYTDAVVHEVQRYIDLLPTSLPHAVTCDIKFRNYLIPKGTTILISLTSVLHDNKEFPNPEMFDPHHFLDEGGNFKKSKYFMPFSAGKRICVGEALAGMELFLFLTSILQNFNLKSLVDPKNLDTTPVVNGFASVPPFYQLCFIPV

[20] = molecular target: Cytochrome P450 2D6 (Homo sapiens, UniProt P10635); test: Inhibition of CYP2D6; format: ADME
Chain of Cytochrome P450 2D6 (P10635 whole entry): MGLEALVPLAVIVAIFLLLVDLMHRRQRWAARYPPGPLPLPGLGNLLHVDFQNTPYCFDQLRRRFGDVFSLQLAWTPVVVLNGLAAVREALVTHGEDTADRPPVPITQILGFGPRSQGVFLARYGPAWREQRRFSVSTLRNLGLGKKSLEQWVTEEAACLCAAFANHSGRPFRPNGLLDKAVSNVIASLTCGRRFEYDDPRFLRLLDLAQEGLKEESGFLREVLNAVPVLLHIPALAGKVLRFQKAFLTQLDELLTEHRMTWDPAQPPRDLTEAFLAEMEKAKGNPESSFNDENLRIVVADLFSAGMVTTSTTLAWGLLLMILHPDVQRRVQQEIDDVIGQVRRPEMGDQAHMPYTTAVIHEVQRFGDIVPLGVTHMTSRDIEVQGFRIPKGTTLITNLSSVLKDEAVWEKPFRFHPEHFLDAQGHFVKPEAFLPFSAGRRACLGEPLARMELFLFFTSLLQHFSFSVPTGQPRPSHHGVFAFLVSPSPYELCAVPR

Compound	Ki [1] [nM]	half-life [6] [h]	clearance [7] [mL/min/kg]	Vd [8] [L/kg]	Ratio [10]	Papp [11] [×10⁻⁶ cm/s]	other results
COC(=O)c1c(F)cccc1-c1ccc(CNC(=O)[C@@](C)(O)C(C)C)c(F)c1	83.5						
COC(=O)c1c(F)cccc1-c1ccc(CNC(=O)[C@@](C)(O)C(F)(F)F)c(F)c1	24.5	1.4	16	1.2	1.6	32	IC50 [9]: 43.6 nM
COC(=O)c1c(F)cccc1-c1ccc(CNC(=O)C2(NC(=O)C(F)(F)F)CC2)c(F)c1					4.1		
CCC(O)(CC)C(=O)NCc1ccc(-c2cccc(F)c2C(=O)OC)cc1F	1090						
COC(=O)c1c(F)cccc1-c1ccc(CNC(=O)C2(O)CC2)c(F)c1	59.1						
C[C@@H](NC(=O)[C@@](C)(O)C(F)(F)F)c1ncc(-c2cc(Cl)cc(F)c2-c2nnn(C)n2)cc1Cl	0.43	9.8	1.3	0.74	1.8	26	bioavailability [2]: 71%; half-life [3]: 4.9 h; clearance [4]: 2.4 mL/min/kg; Vd [5]: 0.86 L/kg
COC(=O)c1c(F)cccc1-c1ccc(CNC(=O)[C@](C)(O)C(F)(F)F)c(F)c1	579						
COC(=O)c1c(F)cccc1-c1ccc(CNC(=O)[C@@H](O)C(C)C)c(F)c1	71.5						
Cc1nc(-c2c(F)cc(Cl)cc2-c2cnc([C@@H](C)NC(=O)[C@@](C)(O)C(F)(F)F)c(F)c2)no1		17	0.42	0.51		27	bioavailability [2]: 34%; half-life [3]: 2 h; clearance [4]: 4.9 mL/min/kg; Vd [5]: 0.52 L/kg; bioavailability [12]: 84%; half-life [13]: 11 h; clearance [14]: 0.45 mL/min/kg; bioavailability [15]: 52%; half-life [16]: 1.3 h; clearance [17]: 7.1 mL/min/kg
C[C@@H](NC(=O)[C@@](C)(O)C(F)(F)F)c1ncc(-c2cc(Cl)cc(F)c2-c2nnn(C)n2)cc1F	0.59	38	0.22	0.47	2.8	36	bioavailability [2]: 53%; half-life [3]: 27 h; clearance [4]: 1 mL/min/kg; Vd [5]: 0.54 L/kg; IC50 [18]: > 10000 nM; IC50 [19]: > 10000 nM; IC50 [20]: > 10000 nM; IC50 [9]: 4.9 nM

The remaining compounds from weak to strong by Ki [1], led by results:

Ki [1] [nM]	half-life [6] [h]	clearance [7] [mL/min/kg]	Vd [8] [L/kg]	Ratio [10]	Papp [11] [×10⁻⁶ cm/s]	Compound	other results
1050						COC(=O)c1c(F)cccc1-c1ccc(CNC(=O)[C@@H](C)O)c(F)c1	
660						COC(=O)c1c(F)cccc1-c1ccc(CNC(=O)[C@H](C)O)c(F)c1	
516						COC(=O)c1c(F)cccc1-c1ccc(CNC(=O)CO)c(F)c1	
479						COC(=O)c1c(F)cccc1-c1ccc(CNC(=O)[C@H](O)C(F)(F)F)c(F)c1	
125						COC(=O)c1c(F)cccc1-c1ccc(CNC(=O)C(C)(C)O)c(F)c1	
109						COC(=O)c1c(F)cccc1-c1ccc(CNC(=O)[C@@H](O)C(F)(F)F)c(F)c1	
95						COC(=O)c1c(F)cccc1-c1ccc(CNC(=O)C(O)(C(F)(F)F)C(F)(F)F)c(F)c1	
88.5						COC(=O)c1c(F)cccc1-c1ccc(CNC(=O)[C@@H](O)C(C)(C)C)c(F)c1	
0.79	9.5	0.91	0.66	1.3	33	Cc1noc(-c2c(Cl)cc(Cl)cc2-c2cnc([C@@H](C)NC(=O)[C@@](C)(O)C(F)(F)F)c(F)c2)n1	bioavailability [2]: 21%; half-life [3]: 3.9 h; clearance [4]: 20 mL/min/kg; Vd [5]: 1 L/kg; IC50 [9]: 6.65 nM
0.66	15	1	1.2	1.7	35	Cc1noc(-c2c(F)cc(Cl)cc2-c2cnc([C@@H](C)NC(=O)[C@@](C)(O)C(F)(F)F)c(F)c2)n1	bioavailability [2]: 32%; half-life [3]: 1.2 h; clearance [4]: 22 mL/min/kg; Vd [5]: 1.3 L/kg; IC50 [9]: 6.65 nM
0.35	3.6	3.2	0.73	1.6	23	COC(=O)c1c(Cl)cc(Cl)cc1-c1cnc([C@@H](C)NC(=O)[C@@](C)(O)C(F)(F)F)c(F)c1	bioavailability [2]: 47%; half-life [3]: 5.6 h; clearance [4]: 7.8 mL/min/kg; Vd [5]: 1.2 L/kg; IC50 [9]: 3.93 nM
